In US9234006B2, “Compounds” (Novacta Biosystems Limited, priority 2011, dated 2016) one finds MIC data, which are given here for 13 molecules.

Holding throughout (assay): MIC susceptibility testing, broth microdilution in CaMHB
For one assay, the system named is E. coli ATCC25922. Type of assay: cell-based, Escherichia coli. Particulars: Table 4A, different batches of cation-adjusted Muller-Hinton broth. The protocol:
(§1) To evaluate the potency and spectrum of the compounds, susceptibility testing was performed against four strains of each of the four Gram negative pathogens, Escherichia coli, Pseudomonas aeruginosa, Klebsiella pneumoniae and Acinetobacter baumannii.
(§2) The day before testing, 3 to 4 colonies were picked from fresh Mueller-Hinton Agar (MHA) plate and transferred into 10 mL of Cation adjusted MHB (CaMHB). Cultures were incubated at 37° C. 250 rpm for 18-20 hours before being diluted 100-fold in fresh CaMHB. The subcultures were grown further until the OD600 reached 0.2-0.3 corresponding to […]. The actively growing cultures were diluted 100-fold in fresh medium and used for the inoculum.
(§3) The assays were performed in duplicate.
(§4) Data was obtained under similar conditions to Table 4 except that different batches of cation-adjusted Muller-Hinton broth were used. The MIC values for these compounds are compared with those values obtained for Polymyxin B, Colistin Sulphate, CB-182,804 and NAB739 (as the TFA salt). CB-182,804 is a polymyxin decapeptide derivative with an aryl urea substituent at the N-terminus, which has been claimed to have lower toxicity than Polymyxin B (compound 5 in WO 2010/075416. See page 37). NAB739 has been described previously by Vaara et al.

The subject of the next assay is P. aeruginosa ATCC27853. Format: cell-based, Pseudomonas aeruginosa. Particulars: Table 4A, different batches of cation-adjusted Muller-Hinton broth. The protocol:
as §1, §2, §3, §4

The subject of a further assay is A. baumannii ATCC19606. Format: cell-based, Acinetobacter baumannii. Particulars: Table 4A, different batches of cation-adjusted Muller-Hinton broth. The protocol:
as §1, §2, §3, §4

The subject of a further assay is K. pneumoniae ATCC 4352. Format: cell-based, Klebsiella pneumoniae. Particulars: K. pneumoniae ATCC4352; Table 4A, different batches of cation-adjusted Muller-Hinton broth. The protocol:
as §1, §2, §3, §4

*1 amine or outer side, *2 acyl side, *3 side chain or, on linkers, in order; H or OH if unused. Where a SMILES comes first, the peptide text is derived from it. Bridges are numbered along the chain shown (N, C = ends). [ ]: non-standard residue; d: D form. The star is where a group is joined. ξ: configuration not given here. Achc(trans-4) = O=C([C@H]1CC[C@H](N[*:1])CC1)[*:2]; Octanoyl(3-OH) = CCCCCC(O)CC(=O)*; NMeGABA = CN(CCCC(=O)[*:2])[*:1]; Thr(3ξ) = CC(O)[C@H](N)C(=O)O; X10 = O=C(CC[C@@H]1CCCN1)*; ξAoc(2) = CCCCCCC(N)C(=O)O; NH(2-ClPh) = Clc1ccccc1N*; Dab = NCC[C@H](N)C(=O)O; X12 = O=C(CCCN1CCOCC1)*; X11 = CC(C)(N)CCC(=O)*; X7 = NC1CCC(C(=O)*)CC1; X1 = CCCCCCC(O)C(=O)*; CO = O=C([*:1])[*:2]; Glycolyl = O=C(CO)*; GABA = NCCCC(=O)O; X9 = O=C(CCCCCO)*

`CC(C)C[C@@H]1NC(=O)[C@@H](Cc2ccccc2)NC(=O)[C@H](CCN)NC(=O)[C@@H](NC(=O)[C@H](CCN)NC(=O)[C@@H](NC(=O)[C@H](CCN)NC(=O)Nc2ccccc2Cl)[C@@H](C)O)CCNC(=O)[C@H]([C@@H](C)O)NC(=O)[C@H](CCN)NC(=O)[C@H](CCN)NC1=O` [CB-182,804, reference compound] ({NH(2-ClPh)-CO}-[Dab]T[Dab][Dab][Dab][dF]L[Dab][Dab]T; lactam 4-C; N-terminus assumed): the MIC came to 2 micrograms/mL in the assay on E. coli ATCC25922, 1 micrograms/mL against P. aeruginosa ATCC27853 and 0.5 micrograms/mL with A. baumannii ATCC19606.

With `CC(C)C[C@@H]1NC(=O)[C@@H](Cc2ccccc2)NC(=O)[C@H](CCN)NC(=O)[C@@H](NC(=O)[C@H](CCN)NC(=O)[C@@H](NC(=O)CO)C(C)O)CCNC(=O)[C@H](C(C)O)NC(=O)[C@H](CCN)NC(=O)[C@H](CCN)NC1=O` (some centres unmarked) [Example 16, Hydroxyacetyl polymyxin B nonapeptide] (Glycolyl-[Thr(3ξ)][Dab][Dab][Dab][dF]L[Dab][Dab][Thr(3ξ)]; lactam 3-C), the MIC against E. coli ATCC25922 is reported as 32 micrograms/mL; in the assay with P. aeruginosa ATCC27853, 0.25 micrograms/mL; against K. pneumoniae ATCC 4352 it was 8 micrograms/mL; in the assay with A. baumannii ATCC19606, 32 micrograms/mL.

For the molecule `CCCCCC(O)CC(=O)N[C@H](C(=O)N[C@@H](CCN)C(=O)N[C@H]1CCNC(=O)[C@H](C(C)O)NC(=O)[C@H](CCN)NC(=O)[C@H](CCN)NC(=O)[C@H](CC(C)C)NC(=O)[C@@H](Cc2ccccc2)NC(=O)[C@H](CCN)NC1=O)C(C)O` (stereo partly drawn) [Example 17, 3-(R,S)-3-Hydroxyoctanoyl polymyxin B nonapeptide] ({Octanoyl(3-OH)}-[Thr(3ξ)][Dab][Dab][Dab][dF]L[Dab][Dab][Thr(3ξ)]; lactam 3-C), the MIC in the assay on E. coli ATCC25922 is given as 8 micrograms/mL; in the assay on P. aeruginosa ATCC27853, 2 micrograms/mL; against K. pneumoniae ATCC 4352, 8 micrograms/mL; in the assay with A. baumannii ATCC19606 it was 4 micrograms/mL.

With `CC(C)C[C@@H]1NC(=O)[C@@H](Cc2ccccc2)NC(=O)[C@H](CCN)NC(=O)[C@@H](NC(=O)[C@H](CCN)NC(=O)[C@@H](NC(=O)CCCN2CCOCC2)C(C)O)CCNC(=O)[C@H](C(C)O)NC(=O)[C@H](CCN)NC(=O)[C@H](CCN)NC1=O` (some centres unmarked) [Example 20, 4-Morpholinylbutanoyl polymyxin B nonapeptide] (X12-[Thr(3ξ)][Dab][Dab][Dab][dF]L[Dab][Dab][Thr(3ξ)]; lactam 3-C), the MIC was 4 micrograms/mL against E. coli ATCC25922, 1 micrograms/mL with P. aeruginosa ATCC27853, greater than 32 micrograms/mL against K. pneumoniae ATCC 4352 and greater than 32 micrograms/mL against A. baumannii ATCC19606.

Turning to `CC(C)C[C@@H]1NC(=O)[C@@H](Cc2ccccc2)NC(=O)[C@H](CCN)NC(=O)[C@@H](NC(=O)[C@H](CCN)NC(=O)[C@@H](NC(=O)CCCCCO)C(C)O)CCNC(=O)[C@H](C(C)O)NC(=O)[C@H](CCN)NC(=O)[C@H](CCN)NC1=O` (some centres unmarked) [Example 21, 6-Hydroxyhexanoyl polymyxin B nonapeptide] (X9-[Thr(3ξ)][Dab][Dab][Dab][dF]L[Dab][Dab][Thr(3ξ)]; lactam 3-C), the MIC is listed as 32 micrograms/mL with E. coli ATCC25922, 1 micrograms/mL with P. aeruginosa ATCC27853, 32 micrograms/mL in the assay on K. pneumoniae ATCC 4352 and greater than 32 micrograms/mL with A. baumannii ATCC19606.

On to `CNCCCC(=O)N[C@H](C(=O)N[C@@H](CCN)C(=O)N[C@H]1CCNC(=O)[C@H](C(C)O)NC(=O)[C@H](CCN)NC(=O)[C@H](CCN)NC(=O)[C@H](CC(C)C)NC(=O)[C@@H](Cc2ccccc2)NC(=O)[C@H](CCN)NC1=O)C(C)O` (some centres unmarked) [Example 23, 4-(N-methylamino)-butanoyl polymyxin B nonapeptide] (NMeGABA-[Thr(3ξ)][Dab][Dab][Dab][dF]L[Dab][Dab][Thr(3ξ)]; lactam 3-C), for which the MIC in the assay on E. coli ATCC25922 is recorded as 0.5 micrograms/mL; against P. aeruginosa ATCC27853, 0.25 micrograms/mL; with K. pneumoniae ATCC 4352 it was 0.5 micrograms/mL; in the assay on A. baumannii ATCC19606, 8 micrograms/mL.

For the molecule `CC(C)C[C@@H]1NC(=O)[C@@H](Cc2ccccc2)NC(=O)[C@H](CCN)NC(=O)[C@@H](NC(=O)[C@H](CCN)NC(=O)[C@@H](NC(=O)[C@H]2CC[C@H](N)CC2)C(C)O)CCNC(=O)[C@H](C(C)O)NC(=O)[C@H](CCN)NC(=O)[C@H](CCN)NC1=O` (stereo partly drawn) [Example 24, trans-4-aminocyclohexanecarbonyl polymyxin B nonapeptide] ({Achc(trans-4)}-[Thr(3ξ)][Dab][Dab][Dab][dF]L[Dab][Dab][Thr(3ξ)]; lactam 3-C), the MIC against E. coli ATCC25922 is listed as 2 micrograms/mL; with P. aeruginosa ATCC27853, 0.125 micrograms/mL; against K. pneumoniae ATCC 4352, 0.125 micrograms/mL; in the assay on A. baumannii ATCC19606, 2 micrograms/mL.

On to `CC(C)C[C@@H]1NC(=O)[C@@H](CC(C)C)NC(=O)[C@H](CCN)NC(=O)[C@@H](NC(=O)[C@H](CCN)NC(=O)[C@@H](NC(=O)CCCN)C(C)O)CCNC(=O)[C@H](C(C)O)NC(=O)[C@H](CCN)NC(=O)[C@H](CCN)NC1=O` (stereo partly drawn) [Example 25, 4-aminobutanoyl polymyxin E nonapeptide] (H-[GABA][Thr(3ξ)][Dab][Dab][Dab][dL]L[Dab][Dab][Thr(3ξ)]; lactam 4-C), for which the MIC against E. coli ATCC25922 worked out at 8 micrograms/mL; in the assay on P. aeruginosa ATCC27853, 4 micrograms/mL; in the assay on K. pneumoniae ATCC 4352, 4 micrograms/mL; against A. baumannii ATCC19606 it was 16 micrograms/mL.

Turning to `CCCCCCC(O)C(=O)N[C@H](C(=O)N[C@@H](CCN)C(=O)N[C@H]1CCNC(=O)[C@H](C(C)O)NC(=O)[C@H](CCN)NC(=O)[C@H](CCN)NC(=O)[C@H](CC(C)C)NC(=O)[C@@H](CC(C)C)NC(=O)[C@H](CCN)NC1=O)C(C)O` (stereo partly drawn) [Example 26, 2-(R,S)-2-Hydroxyoctanoyl polymyxin E nonapeptide] (X1-[Thr(3ξ)][Dab][Dab][Dab][dL]L[Dab][Dab][Thr(3ξ)]; lactam 3-C), the MIC in the assay on E. coli ATCC25922 is 8 micrograms/mL; in the assay with P. aeruginosa ATCC27853, 4 micrograms/mL; with K. pneumoniae ATCC 4352, 8 micrograms/mL; against A. baumannii ATCC19606, 16 micrograms/mL.

As for `CC(C)C[C@@H]1NC(=O)[C@@H](Cc2ccccc2)NC(=O)[C@H](CCN)NC(=O)[C@@H](NC(=O)[C@H](CCN)NC(=O)[C@@H](NC(=O)C2CCC(N)CC2)C(C)O)CCNC(=O)[C@H](C(C)O)NC(=O)[C@H](CCN)NC(=O)[C@H](CCN)NC1=O` (stereo partly drawn) [Example 27, cis-4-aminocyclohexane carbonyl polymyxin B nonapeptide] (X7-[Thr(3ξ)][Dab][Dab][Dab][dF]L[Dab][Dab][Thr(3ξ)]; lactam 3-C), the MIC in the assay on E. coli ATCC25922 amounted to 2 micrograms/mL; in the assay on P. aeruginosa ATCC27853, 0.125 micrograms/mL; in the assay on K. pneumoniae ATCC 4352, 0.125 micrograms/mL; in the assay with A. baumannii ATCC19606 it was 0.5 micrograms/mL.

As to `CC(C)C[C@@H]1NC(=O)[C@@H](Cc2ccccc2)NC(=O)[C@H](CCN)NC(=O)[C@@H](NC(=O)[C@H](CCN)NC(=O)[C@@H](NC(=O)CCC(C)(C)N)C(C)O)CCNC(=O)[C@H](C(C)O)NC(=O)[C@H](CCN)NC(=O)[C@H](CCN)NC1=O` (some centres unmarked) [Example 28, 4-Amino-4-methyl pentanoyl polymyxin B nonapeptide] (X11-[Thr(3ξ)][Dab][Dab][Dab][dF]L[Dab][Dab][Thr(3ξ)]; lactam 3-C), the MIC against E. coli ATCC25922 was 4 micrograms/mL; with P. aeruginosa ATCC27853, less than 0.06 micrograms/mL; against K. pneumoniae ATCC 4352, 0.25 micrograms/mL; in the assay with A. baumannii ATCC19606, 4 micrograms/mL.

For the molecule `CC(C)C[C@@H]1NC(=O)[C@@H](Cc2ccccc2)NC(=O)[C@H](CCN)NC(=O)[C@@H](NC(=O)[C@H](CCN)NC(=O)[C@@H](NC(=O)CC[C@@H]2CCCN2)C(C)O)CCNC(=O)[C@H](C(C)O)NC(=O)[C@H](CCN)NC(=O)[C@H](CCN)NC1=O` (stereo partly drawn) [Example 30, 3-(S)-(1-pyrrolidin-2-yl)-propionyl polymyxin B nonapeptide] (X10-[Thr(3ξ)][Dab][Dab][Dab][dF]L[Dab][Dab][Thr(3ξ)]; lactam 3-C), the MIC against E. coli ATCC25922 worked out at 16 micrograms/mL; against P. aeruginosa ATCC27853, 0.125 micrograms/mL; with K. pneumoniae ATCC 4352 it was 1 micrograms/mL; in the assay with A. baumannii ATCC19606, 8 micrograms/mL.

As to `CCCCCCC(N)C(=O)N[C@H](C(=O)N[C@@H](CCN)C(=O)N[C@H]1CCNC(=O)[C@H](C(C)O)NC(=O)[C@H](CCN)NC(=O)[C@H](CCN)NC(=O)[C@H](CC(C)C)NC(=O)[C@@H](Cc2ccccc2)NC(=O)[C@H](CCN)NC1=O)C(C)O` (stereo partly drawn) [Example 35, 2-(R,S)-2-Amino octanoyl polymyxin B nonapeptide] (H-[ξAoc(2)][Thr(3ξ)][Dab][Dab][Dab][dF]L[Dab][Dab][Thr(3ξ)]; lactam 4-C), the values for the MIC with P. aeruginosa ATCC27853, in the assay on K. pneumoniae ATCC 4352 and in the assay on A. baumannii ATCC19606 were 0.25 micrograms/mL, 1 micrograms/mL and 2 micrograms/mL, respectively.
